Values quoted from earlier work in patent US20260240855A1 (priority 2023, published 2026).

Tested on: extracellular signal-regulated kinase (ERK)
Details: preclinical studies

SMILES: C=CC(=O)N1CCN(c2nc(=O)n(-c3c(C)ccnc3C(C)C)c3nc(-c4c(O)cccc4F)c(F)cc23)[C@@H](C)C1 (atropisomer, axis not shown; (M)) [Sotorasib, 6-fluoro-7-(2-fluoro-6-hydroxyphenyl)-(1M)-1-[4-methyl-2-(propan-2-yl)pyridin-3-yl]-4-[(2S)-2-methyl-4-(prop-2-enoyl)piperazin-1-yl]pyrido[2,3-d]pyrimidin-2(1H)-one]
- phosphorylation of extracellular signal-regulated kinase (ERK): inhibited nearly all detectable phosphorylation
